This passage reports EC50 and IC50 results from patent publication US12098148B2, “Therapeutic compounds” (C4X Discovery Limited, priority 2018, dated 2024).

The subject of assay [1] is NQO1 mRNA in BEAS-2B cells. The assay can be described thus: Beas2B NQO1 mRNA cell based assay. Also on record: species or system human. Particulars: 24 h compound treatment, increase in NQO1 mRNA vs vehicle (0.1% DMSO), read-out: EC50. In a few lines: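 BEAS-2B human bronchial epithelial cells exposed to compound for 24 h at 37 °C, 5% CO2. NQO1 mRNA measured by one-step TaqMan RT-qPCR on unpurified lysates, normalized to β-actin; relative expression by ΔΔCT method.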

The target in assay [2] is human KEAP1 (N-term, residues 321-609) (Homo sapiens, UniProt Q14145). The assay is described as follows: biochemical.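 Further: fluorescence polarization competition assay of Kelch domain binding to NRF2, 12-point 1:3 dilution series from 10 µM, read after 1 h at room temperature, floor 10 nM.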

pEC50, pIC50: −log10 of the molar value. Like-named read-outs stand apart in the source and are kept apart here.

Chain of human KEAP1 (N-term, residues 321-609) (Q14145 321-609): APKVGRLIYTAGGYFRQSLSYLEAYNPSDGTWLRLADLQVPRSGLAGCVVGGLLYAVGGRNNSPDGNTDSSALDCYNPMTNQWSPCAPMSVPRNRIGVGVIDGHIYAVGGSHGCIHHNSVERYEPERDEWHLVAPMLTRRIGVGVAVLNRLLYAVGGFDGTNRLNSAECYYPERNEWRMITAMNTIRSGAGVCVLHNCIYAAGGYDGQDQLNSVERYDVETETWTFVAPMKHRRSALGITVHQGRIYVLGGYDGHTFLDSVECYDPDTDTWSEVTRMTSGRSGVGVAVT

`O=C(O)[C@H]1CCCC[C@H]1C(=O)N1CCc2c(Cl)ccc(OCc3nccn3CC(F)(F)F)c2[C@H]1CN1Cc2ccccc2C1=O` [Example 51, (1S,2R)-2-((S)-5-chloro-1-((1-oxoisoindolin-2-yl)methyl)-8-((1-(2,2,2-trifluoroethyl)-1H-imidazol-2-yl)methoxy)-1,2,3,4-tetrahydroisoquinoline-2-carbonyl)cyclohexane-1-carboxylic acid]: in assay [1] (Homo sapiens, BEAS-2B, 24 h), the pEC50 (usually −log10 of the EC50, conventionally taken in molar units) is 6.96. The pIC50 (commonly the negative decadic logarithm of the IC50, by convention in mol/L) in assay [2] is 8.00.

Regarding `Cc1cc(COc2ccc(Cl)c3c2[C@@H](CN2Cc4ccccc4C2=O)N(C(=O)[C@@H]2CCCC[C@@H]2C(=O)O)CC3)no1` [Example 49, (1S,2R)-2-((S)-5-chloro-8-((5-methylisoxazol-3-yl)methoxy)-1-((1-oxoisoindolin-2-yl)methyl)-1,2,3,4-tetrahydroisoquinoline-2-carbonyl)cyclohexane-1-carboxylic acid], in assay [1] (Homo sapiens, BEAS-2B, 24 h), the pEC50 was 7.72. The molecule also showed a pIC50 in assay [2] of 7.96.

As to `CC1CCN(C[C@@H]2c3c(OCc4cn(C(C)C)nn4)ccc(Br)c3CCN2C(=O)[C@@H]2CCCC[C@@H]2C(=O)O)C1=O` (single isomer, unassigned) [Example 73], in assay [1], the pEC50 was 6.89. Further, the pIC50 in assay [2] is 7.80.

`Cc1cc(COc2ccc(Cl)c3c2[C@@H](CN2CCCC2=O)N(C(=O)[C@@H]2CCCC[C@]2(C)C(=O)O)CC3)no1` [Example 166, (1S,2R)-2-((S)-5-chloro-8-((5-methylisoxazol-3-yl)methoxy)-1-((2-oxopyrrolidin-1-yl)methyl)-1,2,3,4-tetrahydroisoquinoline-2-carbonyl)-1-methylcyclohexane-1-carboxylic acid]: in assay [1] (Homo sapiens, BEAS-2B, 24 h), the pEC50 was 7.40. Moreover, in assay [2], the pIC50 was 8.12.

Turning to `C[C@]1(C(=O)O)CCCC[C@H]1C(=O)N1CCc2c(Cl)ccc(OCc3noc4c(F)cccc34)c2[C@H]1CN1CCCC1=O` [Example 164, (1S,2R)-2-((S)-5-chloro-8-((7-fluorobenzo[d]isoxazol-3-yl)methoxy)-1-((2-oxopyrrolidin-1-yl)methyl)-1,2,3,4-tetrahydroisoquinoline-2-carbonyl)-1-methylcyclohexane-1-carboxylic acid], the pEC50 in assay [1] (Homo sapiens, BEAS-2B, 24 h) was 8.59. Moreover, in assay [2], the pIC50 was 8.22.

As to `CC(C)n1cc(COc2ccc(Br)c3c2[C@@H](CN2Cc4ccccc4C2=O)N(C(=O)[C@@H]2CCCC[C@@H]2C(=O)O)CC3)nn1` [Example 35, (1S,2R)-2-((S)-5-Bromo-8-((1-isopropyl-1H-1,2,3-triazol-4-yl)methoxy)-1-((1-oxoisoindolin-2-yl)methyl)-1,2,3,4-tetrahydroisoquinoline-2-carbonyl)cyclohexane-1-carboxylic acid], in assay [1] (Homo sapiens, BEAS-2B, 24 h), the pEC50 was 8.12. The same molecule gave a pIC50 in assay [2] of 8.00.

Regarding `Cn1nnc(COc2c(F)cc(Cl)c3c2[C@@H](CN2CCCC2=O)N(C(=O)[C@@H]2CCCC[C@]2(C)C(=O)O)CC3)c1C(F)F` [Example 147, (1S,2R)-2-((S)-5-chloro-8-((5-(difluoromethyl)-1-methyl-1H-1,2,3-triazol-4-yl)methoxy)-7-fluoro-1-((2-oxopyrrolidin-1-yl)methyl)-1,2,3,4-tetrahydroisoquinoline-2-carbonyl)-1-methylcyclohexane-1-carboxylic acid], the pEC50 in assay [1] (Homo sapiens, BEAS-2B, 24 h) was 9.54. This molecule also had a pIC50 in assay [2] of 8.29.

Turning to `CC[C@]1(C(=O)O)CCCC[C@H]1C(=O)N1CCc2c(Cl)ccc(OCc3nnn(C)c3C(F)F)c2[C@H]1CN1CCCC1=O` [Example 117, (1S,2R)-2-((S)-5-chloro-8-((5-(difluoromethyl)-1-methyl-1H-1,2,3-triazol-4-yl)methoxy)-1-((2-oxopyrrolidin-1-yl)methyl)-1,2,3,4-tetrahydroisoquinoline-2-carbonyl)-1-ethylcyclohexane-1-carboxylic acid], the pEC50 in assay [1] (Homo sapiens, BEAS-2B, 24 h) was 7.43. The molecule further showed a pIC50 in assay [2] of 8.09.

`C[C@]1(C(=O)O)CCCC[C@H]1C(=O)N1CCc2c(Cl)ccc(OCc3nnn4c3CCCC4)c2[C@H]1CN1CCOCC1=O` [Example 196]: the pEC50 in assay [1] (Homo sapiens, BEAS-2B, 24 h) is 9.01. In addition, in assay [2], the pIC50 is 8.25.

In the case of `CN(C)CCn1cc(COc2ccc(Cl)c3c2[C@@H](CN2CC4(CC4)CC2=O)N(C(=O)[C@@H]2CCCC[C@]2(C)C(=O)O)CC3)nn1` [Example 173, (1S,2R)-2-((S)-5-chloro-8-((1-(2-(dimethylamino)ethyl)-1H-1,2,3-triazol-4-yl)methoxy)-1-((6-oxo-5-azaspiro[2.4]heptan-5-yl)methyl)-1,2,3,4-tetrahydroisoquinoline-2-carbonyl)-1-methylcyclohexane-1-carboxylic acid], the pEC50 in assay [1] (Homo sapiens, BEAS-2B, 24 h) is 7.46. In assay [2], this molecule had a pIC50 of 8.19.

Regarding `Cn1cnc2cc(COc3ccc(Cl)c4c3[C@@H](CN3CCCC3=O)N(C(=O)[C@@H]3CCCC[C@@H]3C(=O)O)CC4)cnc21` [Example 89, (1S,2R)-2-((S)-5-Chloro-8-((3-methyl-3H-imidazo[4,5-b]pyridin-6-yl)methoxy)-1-((2-oxopyrrolidin-1-yl)methyl)-1,2,3,4-tetrahydroisoquinoline-2-carbonyl) cyclohexane-1-carboxylic acid], the pEC50 in assay [1] (Homo sapiens, BEAS-2B, 24 h) was 8.29. In addition, the pIC50 in assay [2] is 8.09.

On to `Cn1nnc(COc2ccc(Cl)c3c2[C@@H](CN2CC4(CC4)CC2=O)N(C(=O)[C@@H]2CCC[C@]2(C)C(=O)O)CC3)c1C(F)(F)F` [Example 153, (1S,2R)-2-((S)-5-chloro-8-((1-methyl-5-(trifluoromethyl)-1H-1,2,3-triazol-4-yl)methoxy)-1-((6-oxo-5-azaspiro [2.4]heptan-5-yl)methyl)-1,2,3,4-tetrahydroisoquinoline-2-carbonyl)-1-methylcyclopentane-1-carboxylic acid], for which, in assay [1] (Homo sapiens, BEAS-2B, 24 h), the pEC50 is 8.15. The pIC50 in assay [2] is 8.05.

Consider `CC(C)n1cc(COc2ccc(Cl)c3c2[C@@H](CN2Cc4ccccc4C2=O)N(C(=O)[C@@H]2CCCC[C@@H]2C(=O)O)CC3)nn1` [Example 57, (1S,2R)-2-((S)-5-chloro-8-((1-isopropyl-1H-1,2,3-triazol-4-yl)methoxy)-1-((1-oxoisoindolin-2-yl)methyl)-1,2,3,4-tetrahydroisoquinoline-2-carbonyl)cyclohexane-1-carboxylic acid], for which the pEC50 in assay [1] (Homo sapiens, BEAS-2B, 24 h) was 8.57. Moreover, the pIC50 in assay [2] was 8.18.

For the molecule `Cn1nnc(COc2ccc(Cl)c3c2[C@@H](CN2CC4(CC4)CC2=O)N(C(=O)[C@@H]2C[C@@H](O)CC[C@]2(C)C(=O)O)CC3)c1C(F)F` [Example 220, (1S,2R,4S)-2-((S)-5-chloro-8-((5-(difluoromethyl)-1-methyl-1H-1,2,3-triazol-4-yl)methoxy)-1-((6-oxo-5-azaspiro[2.4]heptan-5-yl)methyl)-1,2,3,4-tetrahydroisoquinoline-2-carbonyl)-4-hydroxy-1-methylcyclohexane-1-carboxylic acid], the pEC50 in assay [1] (Homo sapiens, BEAS-2B, 24 h) was 7.82. Further, in assay [2], the pIC50 is 8.15.

`C[C@]1(C(=O)O)CCCC[C@H]1C(=O)N1CCc2c(Cl)ccc(OCc3nnc4n3CCOC4)c2[C@H]1CN1CC2(CC2)CC1=O` [Example 176, (1S,2R)-2-((S)-5-chloro-8-((5,6-dihydro-8H-[1,2,4]triazolo[3,4-c][1,4]oxazin-3-yl)methoxy)-1-((6-oxo-5-azaspiro [2.4]heptan-5-yl)methyl)-1,2,3,4-tetrahydroisoquinoline-2-carbonyl)-1-methylcyclohexane-1-carboxylic acid]: in assay [1] (Homo sapiens, BEAS-2B, 24 h), the pEC50 is 8.55. In assay [2], the pIC50 was 8.21.

As for `Cn1c(COc2ccc(Cl)c3c2[C@@H](CN2CC4(CC4)CC2=O)N(C(=O)[C@@H]2CCCC[C@]2(C)C(=O)O)CC3)nnc1C1CC1` [Example 184, (1S,2R)-2-((S)-5-chloro-8-((5-cyclopropyl-4-methyl-4H-1,2,4-triazol-3-yl)methoxy)-1-((6-oxo-5-azaspiro[2.4]heptan-5-yl)methyl)-1,2,3,4-tetrahydroisoquinoline-2-carbonyl)-1-methylcyclohexane-1-carboxylic acid], in assay [1] (Homo sapiens, BEAS-2B, 24 h), the pEC50 was 8.25. In assay [2], this molecule had a pIC50 of 8.54.

Regarding `C[C@]1(C(=O)O)CCCC[C@H]1C(=O)N1CCc2c(Cl)ccc(OCc3noc4ccccc34)c2[C@H]1CN1CCCC1=O` [Example 100, (1S,2R)-2-((S)-8-(benzo[d]isoxazol-3-ylmethoxy)-5-chloro-1-((2-oxopyrrolidin-1-yl)methyl)-1,2,3,4-tetrahydroisoquinoline-2-carbonyl)-1-methylcyclohexane-1-carboxylic acid], the pEC50 in assay [1] (Homo sapiens, BEAS-2B, 24 h) was 8.47. This molecule also showed a pIC50 in assay [2] of 8.29.

Turning to `Cn1nnc(COc2ccc(Cl)c3c2[C@@H](CN2CC4(CC4)CC2=O)N(C(=O)[C@@H]2OCCC[C@@H]2C(=O)O)CC3)c1C(F)F` [Example 140, (2R,3S)-2-((S)-5-chloro-8-((5-(difluoromethyl)-1-methyl-1H-1,2,3-triazol-4-yl)methoxy)-1-((6-oxo-5-azaspiro[2.4]heptan-5-yl)methyl)-1,2,3,4-tetrahydroisoquinoline-2-carbonyl)tetrahydro-2H-pyran-3-carboxylic acid], in assay [1] (Homo sapiens, BEAS-2B, 24 h), the negative-log EC50 (pEC50) was 6.82. Further, the pIC50 in assay [2] was 8.35.

In the case of `O=C(O)[C@H]1CCCC[C@H]1C(=O)N1CCc2c(Cl)ccc(OCc3cccnn3)c2[C@H]1CN1CCCC1=O` [Example 88, (1S,2R)-2-((S)-5-Chloro-1-((2-oxopyrrolidin-1-yl)methyl)-8-(pyridazin-3-ylmethoxy)-1,2,3,4-tetrahydroisoquinoline-2-carbonyl) cyclohexane-1-carboxylic acid], the negative logarithm of the EC50 (pEC50) in assay [1] (Homo sapiens, BEAS-2B, 24 h) is 7.11. For the same molecule, the pIC50 in assay [2] was 7.96.

For `Cn1nnc2c1CC(Oc1ccc(Cl)c3c1[C@@H](CN1CC4(CC4)CC1=O)N(C(=O)[C@@H]1CCCC[C@]1(C)C(=O)O)CC3)C2` (single isomer, unassigned; isomer 2) [Example 216], the pEC50 in assay [1] is 6.96. In assay [2], this molecule showed a pIC50 of 8.19.
